Source: US10214508B2, “Nitrogen-containing heterocyclic compound” (Takeda Pharmaceutical Company Limited, priority 2014, dated 2019)

Target: T1, human M1 receptor (hCHRM1) (Homo sapiens, UniProt P11229)
T1 construct: expressed in transfected cells
T1 sequence (P11229 1-460): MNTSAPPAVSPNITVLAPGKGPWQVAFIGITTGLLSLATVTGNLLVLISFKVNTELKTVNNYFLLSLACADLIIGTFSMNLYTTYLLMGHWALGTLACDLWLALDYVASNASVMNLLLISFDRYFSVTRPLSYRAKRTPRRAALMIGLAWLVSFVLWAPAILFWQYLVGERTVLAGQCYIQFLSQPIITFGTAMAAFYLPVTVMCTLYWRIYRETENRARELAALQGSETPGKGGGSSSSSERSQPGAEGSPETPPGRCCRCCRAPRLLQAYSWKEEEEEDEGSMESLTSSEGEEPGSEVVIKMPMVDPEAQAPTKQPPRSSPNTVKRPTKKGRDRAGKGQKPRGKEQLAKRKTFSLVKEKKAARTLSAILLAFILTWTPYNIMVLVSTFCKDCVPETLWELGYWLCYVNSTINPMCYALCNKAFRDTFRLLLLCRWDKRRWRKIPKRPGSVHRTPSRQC
Assay: Measurement of M1 receptor positive allosteric modulator (M1PAM) activity, calcium fluorescence (FLIPRtetra)
Format: cell-based
Details: 10 μM test compound with acetylcholine at EC20 (final 0.6-0.8 nM); 100% = acetylcholine 1 μM, 0% = DMSO; CHO-K1 cells expressing hCHRM1
Protocol: Measurement of M1 Receptor Positive Allosteric Modulator (M1PAM) Activity
The activity of a test compound in the presence of acetylcholine at EC20 concentration (final concentration 0.6-0.8 nM), which affords an action corresponding to about 20% of the maximum activity, was measured as PAM activity. The method is as follows. CHO-K1 cells stably expressing a human M1 receptor (hCHRM1) were plated on a 384-well black clear bottom plate (BD Falcon) at 5,000 cells/well, and cultured in an incubator at 37° C., 5% CO2 for 1 day. The medium in the cell plate was removed, and assay buffer A containing calcium indicator (Recording medium (DOJINDO LABORATORIES), 0.1% BSA (Wako Pure Chemical Industries, Ltd.), 2.5 μg/mL Fluo-4 AM (DOJINDO LABORATORIES), 0.08% Pluronic F127 (DOJINDO LABORATORIES), 1.25 mM probenecid (DOJINDO LABORATORIES)) was added at 30 μL/well. The cells were left standing in the incubator at 37° C., 5% CO2 for 30 min, and further left standing at room temperature for 30 min. A test compound prepared by diluting with assay buffer B (HBSS (Invitrogen), 20 mM HEPES (Invitrogen), 0.1% BSA) containing 2.4-3.2 nM acetylcholine was added at 10 μL/well, and the fluorescence was measured by FLIPRtetra (Molecular Devices) for 1 min every for 1 second. With the definition that the amount of change in the fluorescence on addition of acetylcholine (final concentration 1 μM) is 100% and that on addition of DMSO instead of a test compound is 0%, the activity (%) of the test compound was calculated, and the inflection point in the concentration-dependent curve of the test compound was calculated as IP values.

Row | SMILES | activity (%) at 10 μM [%]
1 | Cc1cnc(C(=O)NC2CC2)cc1Cc1ccc(-c2ccn(C)n2)cc1 [Example 28, N-cyclopropyl-5-methyl-4-(4-(1-methyl-1H-pyrazol-3-yl)benzyl)pyridine-2-carboxamide] | 73
2 | Cc1cnc(C(=O)NC2CCC2)cc1Cc1ccc(-c2ccn(C)n2)cc1 [Example 29, N-cyclobutyl-5-methyl-4-(4-(1-methyl-1H-pyrazol-3-yl)benzyl)pyridine-2-carboxamide] | 93
3 | Cc1cnc(C(=O)NC2CC(F)(F)C2)cc1Cc1ccc(-c2ccn(C)n2)cc1 [Example 30, N-(3,3-difluorocyclobutyl)-5-methyl-4-(4-(1-methyl-1H-pyrazol-3-yl)benzyl)pyridine-2-carboxamide] | 85
4 | Cc1cnc(C(=O)NC2CCOC2)cc1Cc1ccc(-c2ccn(C)n2)cc1 (stereo not drawn) [Example 31, 5-methyl-4-(4-(1-methyl-1H-pyrazol-3-yl)benzyl)-N-(tetrahydrofuran-3-yl)pyridine-2-carboxamide] | 84
5 | Cc1cnc(C(=O)NC2CCCOC2)cc1Cc1ccc(-c2ccn(C)n2)cc1 (stereo not drawn) [Example 32, 5-methyl-4-(4-(1-methyl-1H-pyrazol-3-yl)benzyl)-N-(tetrahydro-2H-pyran-3-yl)pyridine-2-carboxamide] | 101
6 | Cc1cnc(C(=O)NC2CCC(F)(F)CC2)cc1Cc1ccc(-c2ccn(C)n2)cc1 [Example 33, N-(4,4-difluorocyclohexyl)-5-methyl-4-(4-(1-methyl-1H-pyrazol-3-yl)benzyl)pyridine-2-carboxamide] | 71
7 | Cc1cnc(C(=O)N[C@H]2CCC[C@@H]2O)cc1Cc1ccc(-n2cccn2)nc1 [Example 34, N-((1S,2S)-2-hydroxycyclopentyl)-5-methyl-4-((6-(1H-pyrazol-1-yl)pyridin-3-yl)methyl)pyridine-2-carboxamide] | 96
8 | Cc1cnc(C(=O)N[C@H]2CCCC[C@@H]2O)cc1Cc1ccc(-n2cccn2)nc1 [Example 35, N-((1S,2S)-2-hydroxycyclohexyl)-5-methyl-4-((6-(1H-pyrazol-1-yl)pyridin-3-yl)methyl)pyridine-2-carboxamide] | 102
9 | Cc1cnc(C(=O)N[C@H]2COCC[C@@H]2O)cc1Cc1ccc(-n2cccn2)cc1F [Example 36, 1,5-anhydro-2,4-dideoxy-2-(((4-(2-fluoro-4-(1H-pyrazol-1-yl)benzyl)-5-methylpyridin-2-yl)carbonyl)amino)-L-threo-pentitol] | 95
10 | O=C(N[C@H]1CCC[C@@H]1O)c1cc(Cc2ccc(-n3cccn3)cc2)c(C(F)F)cn1 [Example 37, 5-(difluoromethyl)-N-((1S,2S)-2-hydroxycyclopentyl)-4-(4-(1H-pyrazol-1-yl)benzyl)pyridine-2-carboxamide] | 106
11 | O=C(N[C@H]1CCCC[C@@H]1O)c1cc(Cc2ccc(-n3cccn3)cc2)c(C(F)F)cn1 [Example 38, 5-(difluoromethyl)-N-((1S,2S)-2-hydroxycyclohexyl)-4-(4-(1H-pyrazol-1-yl)benzyl)pyridine-2-carboxamide] | 101
12 | O=C(N[C@H]1COCC[C@@H]1O)c1cc(Cc2ccc(-n3cccn3)cc2)c(C(F)F)cn1 [Example 39, 1,5-anhydro-2,4-dideoxy-2-(((5-(difluoromethyl)-4-(4-(1H-pyrazol-1-yl)benzyl)pyridin-2-yl)carbonyl)amino)-L-threo-pentitol] | 100
13 | Cn1ccc(-c2ccc(Cc3cc(C(=O)N[C@H]4COCC[C@@H]4O)ncc3C(F)F)cc2)n1 [Example 40, 1,5-anhydro-2,4-dideoxy-2-(((5-(difluoromethyl)-4-(4-(1-methyl-1H-pyrazol-3-yl)benzyl)pyridin-2-yl)carbonyl)amino)-L-threo-pentitol] | 95
14 | Cn1ccc(-c2ccc(Cc3cc(C(=O)N[C@H]4CCCC[C@@H]4O)ncc3C(F)F)cc2)n1 [Example 41, 5-(difluoromethyl)-N-((1S,2S)-2-hydroxycyclohexyl)-4-(4-(1-methyl-1H-pyrazol-3-yl)benzyl)pyridine-2-carboxamide] | 95
15 | C=Cc1cnc(C(=O)N[C@H]2CCCC[C@@H]2O)cc1Cc1ccc(-n2cccn2)cc1 [Example 42, N-((1S,2S)-2-hydroxycyclohexyl)-4-(4-(1H-pyrazol-1-yl)benzyl)-5-vinylpyridine-2-carboxamide] | 106
16 | CCc1cnc(C(=O)N[C@H]2CCCC[C@@H]2O)cc1Cc1ccc(-n2cccn2)cc1 [Example 43, 5-ethyl-N-((1S,2S)-2-hydroxycyclohexyl)-4-(4-(1H-pyrazol-1-yl)benzyl)pyridine-2-carboxamide] | 92
17 | CCc1cnc(C(=O)N[C@H]2COCC[C@@H]2O)cc1Cc1ccc(-n2cccn2)cc1 [Example 44, 1,5-anhydro-2,4-dideoxy-2-(((5-ethyl-4-(4-(1H-pyrazol-1-yl)benzyl)pyridin-2-yl)carbonyl)amino)-L-threo-pentitol] | 92
18 | O=C(N[C@H]1CCCC[C@@H]1O)c1cc(Cc2ccc(-n3cccn3)cc2)ccn1 [Example 45, N-((1S,2S)-2-hydroxycyclohexyl)-4-(4-(1H-pyrazol-1-yl)benzyl)pyridine-2-carboxamide] | 102
19 | O=C(N[C@H]1CCCC[C@@H]1O)c1cc(Cc2ccc(-n3cccn3)cc2)c(C2CC2)cn1 [Example 46, 5-cyclopropyl-N-((1S,2S)-2-hydroxycyclohexyl)-4-(4-(1H-pyrazol-1-yl)benzyl)pyridine-2-carboxamide] | 101
20 | O=C(N[C@H]1COCC[C@@H]1O)c1cc(Cc2ccc(-n3cccn3)cc2)c(C2CC2)cn1 [Example 47, 1,5-anhydro-2-(((5-cyclopropyl-4-(4-(1H-pyrazol-1-yl)benzyl)pyridin-2-yl)carbonyl)amino)-2,4-dideoxy-L-threo-pentitol] | 96
21 | Cc1cnc(C(=O)N[C@H]2CCCC[C@@H]2O)cc1Cc1ccc(-n2cccn2)cc1 [Example 48, N-((1S,2S)-2-hydroxycyclohexyl)-5-methyl-4-(4-(1H-pyrazol-1-yl)benzyl)pyridine-2-carboxamide] | 106
22 | Cc1cnc(C(=O)N[C@H]2COCC[C@@H]2O)cc1Cc1ccc(-n2cccn2)cc1 [Example 49, 1,5-anhydro-2,4-dideoxy-2-(((5-methyl-4-(4-(1H-pyrazol-1-yl)benzyl)pyridin-2-yl)carbonyl)amino)-L-threo-pentitol] | 99
23 | Cc1cnc(C(=O)N[C@H]2CCC[C@@H]2O)cc1Cc1ccc(-n2cccn2)cc1 [Example 50, N-((1S,2S)-2-hydroxycyclopentyl)-5-methyl-4-(4-(1H-pyrazol-1-yl)benzyl)pyridine-2-carboxamide] | 105
24 | Cn1ccc(-c2ccc(Cc3cc(C(=O)N[C@H]4CCCC[C@@H]4O)ncc3Cl)cc2)n1 [Example 51, 5-chloro-N-((1S,2S)-2-hydroxycyclohexyl)-4-(4-(1-methyl-1H-pyrazol-3-yl)benzyl)pyridine-2-carboxamide] | 95
